Laboratory results as given in patent US20020037328A1, “Hexitol compositions and uses thereof” (priority 2000, published 2002).

System: murine fibrosarcomas (RIF-1 cells)
Assay: Tumor growth delay (tumor volume quadrupling time) of RIF-1 fibrosarcomas in C3H mice
Format: in vivo
Settings: Dianhydrogalactitol 10 mg/kg, Cisplatin 4 mg/kg; for Delay (median TVQT of treated group minus control group) / TVQT/CTVQT (ratio of TVQT of treated tumor over untreated control) / Median (TVQT): RIF-1 tumors in C3H mice, i.p., combination 10 → 4 mg/kg (30 min apart); for TVQT/CTVQT (ratio of TVQT of treated tumor over untreated control): control 1.0; for Median (TVQT): control 6.3; for Mean TVQT ± S.E. (tumor volume quadrupling time): RIF-1 tumors intradermal in female C3H mice, single i.p. injection, combination 10 → 4 mg/kg (cisplatin 30 min after dianhydrogalactitol), 4 mice per group, untreated control 6.3 ± 0.3
Procedure: Transplantable experimental murine fibrosarcomas (2×10^5 RIF-1 cells) were grown intradermally in the flanks of 3 month old female C3H mice (Charles River, Hollister, Calif.). When the tumors reached a volume of approximately 100 mm^3, the mice were randomly assigned to each experimental group (4 mice per group).
The experimental compositions were prepared as described in Table 1.
Dianhydrogalactitol was obtained from NCI and was made to the appropriate concentration in DMSO. Cisplatin (David Bull Laboratories- Mulgrave, Australia, lot. 5201844x) was made to the appropriate concentration in water for injection. The compositions were injected systemically (i.e., intraperitoneally, i.p.), in a volume of 100 microliters. For the treatment of group 3, dianhydrogalactitol, was injected 30 minutes prior to the injection of cisplatin. After treatment, the growth of the tumors was monitored three times per week by caliper measurements of three perpendicular diameters of the tumor and calculation of tumor volume from the formula: […]
where D1-3 are the diameters in mm of the three perpendicular axes.
The tumors were followed until they reached a size of four times their day zero treatment volume (TVQT), or up to 30 days after treatment, whichever came first. The data is expressed as the “tumor volume quadrupling time” (TVQT) mean and as the “delay.” Mean TVQT is the mean days required for individual tumors to grow to four times the tumor volume at the initial treatment day. The “delay” is the median of days required for a tumor to grow to four times the mean size of the treated group, minus the median of days required to grow to four times the mean size of the control group. The data is also expressed as the ratio of the tumor volume quadrupling time of the treated tumor over the untreated control group (TVQT/CTVQT). Increasing values of this ratio indicate increased antitumor response.

Row | SMILES | Delay (median TVQT of treated group minus control group) [days] | TVQT/CTVQT (ratio of TVQT of treated tumor over untreated control) | Median (TVQT) [days] | Mean TVQT ± S.E. (tumor volume quadrupling time) [days]
1 | N.N.[Cl][Pt][Cl] [Cisplatin, cis-diamminedichloroplatinum II] | 1.45 | 1.2 | 7.7 | 7.4 ± 0.3
2 | OC(C1CO1)C(O)C1CO1 (centres unmarked) [Dianhydrogalactitol, 1,2:5,6-Dianhydrogalactitol] | 5.12 | 1.7 | 11.4 | 10.9 ± 0.8
